ChEMBL document CHEMBL1128796, “2-Substituted 2-aminoethanol: Minimum essential structure for immunosuppressive activity of ISP-I (Myriocin)” (Bioorg Med Chem Lett, 1995)
Where a name gives a salt, the structure may show the parent alone.

Organism: Mus musculus
Assay: Effect on mouse allogenic mixed lymphocyte reaction (MLR)
Assay type: functional

Row | SMILES | IC50 [nM]
1 | CCCCCCCCCCCCCCCCCCC(CO)CO | > 10000
2 | CCCCCCCCCCCCCCCCCCC(N)(CO)CO | 12
3 | CCCCCCCCCCCCCCCCCCC(N)CO (configuration not stated) | 140
4 | CCCCCCCCc1ccc(CCC(N)CO)cc1 (configuration not stated) | 11
5 | CCCCCCCCc1ccc(CCC(N)(CO)CO)cc1 [FINGOLIMOD HYDROCHLORIDE] | 6.1
6 | CCCCCCC(=O)CCCCCC/C=C/C[C@@H](O)[C@H](O)[C@@](N)(CO)C(=O)O [MYRIOCIN] | 8
7 | CCCCCCCCCCCCCCCCCCN [OCTADECYLAMINE] | > 10000
